Test results as given in patent US7960397B2, “6,9-disubstituted purine derivatives and their use as cosmetics and cosmetic compositions” (Institute of Experimental Botany, Academy of Sciences of …, priority 2007, dated 2011).

Experiments:
[1] = system: excised wheat leaf tips; experiment: Antisenescence test, retention of chlorophyll in excised wheat leaf tips; set-up: species or system Triticum aestivum cv. Hereward; conditions: for activity (%) [10^−4 mol · l^−1 BAP = 100%]: retention of chlorophyll in excised wheat leaf tips at the concentration with highest activity, 10 replicate determinations; for concentration with highest activity: retention of chlorophyll in excised wheat leaf tips, tested range 10^−8 M to 10^−4 M, 96 h in the dark at 25° C.
Experimental: Testing of antisenescence properties of novel cytokinin compounds on wheat leaf segments. Seeds of winter wheat, Triticum aestivum cv. Hereward, were washed under running water for 24 hours and then sown on vermiculite soaked with the Knop's solution. They were placed in the grow chamber at 25° C. with a 16 h-8 h light period at 50 mmol.m^−2.s^−1. After 7 days, the first leaf was fully developed and the second leaf had started to grow. A 35 mm long tip section of the first leaf, was removed from each of 5 seedlings and trimmed slightly to a combined weight of 100 mg. The basal ends of the five leaf tips were placed in the wells of a microtiter polystyrene plate containing […] of the solution of the tested compound each. The entire plate was inserted into a plastic box lined with paper tissues soaked with distilled water to prevent leaf sections from drying out. After 96 h incubation in the dark at 25° C., the leaves were removed and chlorophyll was extracted by heating at 80° C. for 10 min in 5 ml of 80% ethanol (v/v). The sample volume was then restored to 5 ml by the addition of 80% ethanol (v/v). The absorbance of the extract was recorded at 665 nm. In addition, chlorophyll extracts from fresh leaves and leaf tips incubated in deionized water were measured. […] Relative activity of the compound at this concentration was calculated (Table 7). The activity obtained for 10^−4 M 6-benzylaminopurine (BAP) was defined as 100%. The values shown are means of five replicates and the whole experiment was repeated twice.
(§1) The compounds to be tested were dissolved in dimethylsulfoxide (DMSO) and the solution brought up to 10^−3 M with distilled water.

[2] = system: Amaranthus caudatus cotyledon/hypocotyl explants; experiment: Amaranthus bioassay (betacyanin content); set-up: species or system Amaranthus caudatus var. atropurpurea; conditions: for concentration with highest activity: betacyanin content after 48 h incubation, tested 10^−8 M to 10^−4 M; for Activity (%) [10^−5 mol · l^−1 BAP = 100%]: betacyanin content at the concentration with highest activity, 10^−5 M BAP = 100%
Experimental: Testing of novel compounds for typical cytokinin activity in Amaranthus bioassay. A standard Amaranthus bioassay was performed with several modifications. The seeds of Amaranthus caudatus var. atropurpurea were surface-sterilized in 10% (w/v) N-chlorobenzenesulfonamide for 10 min and washed 5 times with deionized water. They were placed in 14 cm Petri dishes containing paper tissues saturated with deionized water. After 72 h of cultivation at 25° C. in darkness, the roots of the seedlings were cut off. The explants, consisting of two cotyledons and hypocotyls, were placed in 5 cm Petri dishes onto two layers of filter paper soaked with 1 ml of the incubation medium containing 10 mmol of NA2HPO4—KH2PO4, pH 6.8, 5 mmol of tyrosine and the compound to be tested. There were 20 explants per dish. The procedure was carried out under a green safe light in a darkroom. […] The concentration of betacyanin was determined from the absorbencies at 537 nm and 620 nm as follows: DA=A537 nm−A620 nm. […] Relative activity of the compound at this concentration was calculated. The activity obtained for 10^−5 M 6-benzylaminopurine (BAP) was defined as 100%.
as §1

[3] = system: cytokinin-dependent tobacco callus Nicotiana tabacum L. cv. Wisconsin 38; experiment: Cytokinin activity in tobacco callus bioassay; assay type: cell-based; conditions: for concentration with highest activity: growth of tobacco callus, four weeks of cultivation, tested 10^−8 M to 10^−4 M; for Activity (%) [10^−5 mol · l^−1 BAP = 100%]: increase of fresh callus weight at the concentration with highest activity, 10^−5 M BAP = 100%
Experimental: Estimation of cytokinin biological activity of novel compounds in callus bioassay. Cytokinin-dependent tobacco callus Nicotiana tabacum L. cv. […] Subcultivation was carried out every three weeks. Fourteen days before the bioassay, the callus tissue was transferred to the media without the compound tested. The biological activity was determined from the increase of the fresh callus weight after four weeks of cultivation. Five replicates were prepared for each concentration of the compound tested and the entire test was repeated twice. […] The relative activity of the compound at this concentration was calculated (Table 8). […] The compounds to be tested were dissolved in dimethylsulfoxide (DMSO) and the solution brought up to 10^−3 M with distilled water. This stock solution was further diluted with the respective media used for the biotest to a concentration ranging from 10^−8 M to 10^−4 M.

[4] = system: human diploid fibroblasts (HCA cells, HCA20, HCA40, HCA60); experiment: Senescent cells (β-galactosidase staining) in culture of human fibroblasts; assay type: cell-based
Experimental: In this example, human diploid fibroblasts (HCA cells of various passage levels: passage 20—designated HCA20; passage 40—designated HCA40; passage 60—designated HCA60) were stained for β-galactosidase activity. The medium used for the cell cultivation was removed, the cells were washed twice in […], and fixed in 2-3 ml of fixing solution comprised of a 2% formaldehyde and 0.2% glutaraldehyde in PBS. The cells were incubated at room temperature for 5 minutes, and then washed twice with PBS. The cells were subsequently incubated at 37° C.

SMILES | activity (%) [10^−4 mol · l^−1 BAP = 100%] [1] [%] | concentration with highest activity [1] | concentration with highest activity [2] | Activity (%) [10^−5 mol · l^−1 BAP = 100%] [2] [%] | concentration with highest activity [3] | Activity (%) [10^−5 mol · l^−1 BAP = 100%] [3] [%] | SENESCENT CELLS (%) HCA20 ([4]; human fibroblasts passage 20 (HCA20)) [%] | SENESCENT CELLS (%) HCA40 ([4]; human fibroblasts passage 40 (HCA40)) [%] | SENESCENT CELLS (%) HCA60 ([4]; human fibroblasts passage 60 (HCA60)) [%]
CCOC(C)n1cnc2c(NCCC(C)CO)ncnc21 (stereo not shown) | 94 | 10^−4 mol · l^−1 | 10^−4 mol · l^−1 | 85 | 10^−4 mol · l^−1 | 95 |  |  | 
Cc1cc(Nc2ncnc3c2ncn3C2CCCO2)ccc1O (stereo not shown) | 4 | 10^−4 mol · l^−1 | 10^−4 mol · l^−1 | 6 | 10^−5 mol · l^−1 | 7 |  |  | 
COc1ccc(CNc2ncnc3c2ncn3C2CCCO2)cc1O (stereo not shown) | 35 | 10^−4 mol · l^−1 | 10^−4 mol · l^−1 | 32 | 10^−6 mol · l^−1 | 47 |  |  | 
Oc1ccccc1CNc1ncnc2c1ncn2CCCCCl [2-hydroxybenzylamino / 4-chlorobutyl] | 47.5 | 10^−4 mol · l^−1 | 10^−4 mol · l^−1 | 47.5 |  |  |  |  | 
Oc1cccc(CNc2ncnc3c2ncn3CCCCCl)c1 [3-hydroxybenzylamino / 4-chlorobutyl] | 102.5 | 10^−4 mol · l^−1 | 10^−4 mol · l^−1 | 102.5 | 10^−4 mol · l^−1 | 111.6 |  |  | 
Oc1cc(O)cc(CNc2ncnc3[nH]cnc23)c1 [3,5-dihydroxybenzylamino / H, reference compound] | 134 | 10^−4 mol · l^−1 | 10^−5 mol · l^−1 | 53 | 10^−6 mol · l^−1 | 39 |  |  | 
COc1cc(O)cc(OC)c1CNc1ncnc2c1ncn2C1CCCO1 (stereo not shown) | 14 | 10^−4 mol · l^−1 | 10^−4 mol · l^−1 | 7 | 10^−5 mol · l^−1 | 31 |  |  | 
CCOC(C)n1cnc2c(NCc3cccc(O)c3)ncnc21 (stereo not shown) [3-hydroxybenzylamino / 1-ethoxyethyl] | 108.2 | 10^−4 mol · l^−1 | 10^−4 mol · l^−1 | 108.2 | 10^−4 mol · l^−1 | 109.4 |  |  | 
Oc1ccc(Nc2ncnc3c2ncn3C2CCCCO2)cc1 (stereo not shown) [4-hydroxyanilino / tetrahydropyran-2-yl, 6-(4-hydroxyanilino)-9-(tetrahydropyran-2-yl)-purine] |  |  | 10^−4 mol · l^−1 | 32 | 10^−5 mol · l^−1 | 22 | 4 | 6 | 16
COc1cccc(CNc2ncnc3[nH]cnc23)c1O [2-hydroxy-3-methoxybenzylamino / H, reference compound] | 34 | 10^−4 mol · l^−1 | 10^−4 mol · l^−1 | 19 |  |  |  |  | 
CC(CO)CCNc1ncnc2c1ncn2CCCCCl (stereo not shown) | 89 | 10^−4 mol · l^−1 | 10^−4 mol · l^−1 | 81 | 10^−4 mol · l^−1 | 84 |  |  | 
Oc1ccc(O)c(CNc2ncnc3c2ncn3C2CCCCO2)c1 (stereo not shown) | 15 | 10^−4 mol · l^−1 | 10^−4 mol · l^−1 | 35.1 | 10^−5 mol · l^−1 | 20 |  |  | 
Oc1ccc(CNc2ncnc3c2ncn3C2CCCCO2)c(O)c1 (stereo not shown) |  |  |  |  | 10^−5 mol · l^−1 | 5 |  |  | 
COc1cccc(CNc2ncnc3c2ncn3CCCCCl)c1O |  |  | 10^−4 mol · l^−1 | 53 |  |  |  |  | 
COc1cc(CNc2ncnc3c2ncn3C2CCCO2)cc(OC)c1O (stereo not shown) | 36 | 10^−4 mol · l^−1 | 10^−4 mol · l^−1 | 2 | 10^−5 mol · l^−1 | 27 |  |  | 
CC(CO)CCNc1ncnc2[nH]cnc12 (stereo not shown) [4-hydroxy-3-methylbutylamino / H, reference compound] | 89 | 10^−4 mol · l^−1 | 10^−4 mol · l^−1 | 75 | 10^−5 mol · l^−1 | 83.2 |  |  | 
Cc1cc(CNc2ncnc3c2ncn3C2CCCO2)ccc1O (stereo not shown) [4-hydroxy-5-methylbenzylamino / tetrahydrofuran-2-yl] | 17 | 10^−4 mol · l^−1 | 10^−4 mol · l^−1 | 22 | 10^−5 mol · l^−1 | 2 |  |  | 
Cc1cc(CNc2ncnc3c2ncn3C2CCCO2)ccc1O (stereo not shown) [4-hydroxy-3-methylbenzylamino / tetrahydrofuran-2-yl] | 1.4 | 10^−4 mol · l^−1 | 10^−4 mol · l^−1 | 2 | 10^−5 mol · l^−1 | 12 |  |  | 
Oc1cc(O)cc(CNc2ncnc3c2ncn3C2CCCCO2)c1 (stereo not shown) | 145 | 10^−4 mol · l^−1 | 10^−5 mol · l^−1 | 53 | 10^−6 mol · l^−1 | 45 |  |  | 
Oc1ccc(Nc2ncnc3c2ncn3C2CCCO2)cc1 (stereo not shown) [4-hydroxyanilino / tetrahydrofuran-2-yl] | 28 | 10^−4 mol · l^−1 | 10^−4 mol · l^−1 | 22 | 10^−5 mol · l^−1 | 10 |  |  | 
